Target: T1, LATS2 (Homo sapiens, UniProt Q9NRM7)
T1 construct: purchased Thermo Fisher Scientific (Life Technologies) SelectScreen
Test: SelectScreen LanthaScreen
Assay type: binding
Settings: 1 µM
Procedure, shortened: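 Percent values come from Thermo SelectScreen profiling of NU5455, combining activity and binding assays. CSF1R was run in Z'LYTE format at Km app ATP, and CAMK1 in Adapta format with ATP listed at 10.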

T1 sequence (Q9NRM7 whole entry): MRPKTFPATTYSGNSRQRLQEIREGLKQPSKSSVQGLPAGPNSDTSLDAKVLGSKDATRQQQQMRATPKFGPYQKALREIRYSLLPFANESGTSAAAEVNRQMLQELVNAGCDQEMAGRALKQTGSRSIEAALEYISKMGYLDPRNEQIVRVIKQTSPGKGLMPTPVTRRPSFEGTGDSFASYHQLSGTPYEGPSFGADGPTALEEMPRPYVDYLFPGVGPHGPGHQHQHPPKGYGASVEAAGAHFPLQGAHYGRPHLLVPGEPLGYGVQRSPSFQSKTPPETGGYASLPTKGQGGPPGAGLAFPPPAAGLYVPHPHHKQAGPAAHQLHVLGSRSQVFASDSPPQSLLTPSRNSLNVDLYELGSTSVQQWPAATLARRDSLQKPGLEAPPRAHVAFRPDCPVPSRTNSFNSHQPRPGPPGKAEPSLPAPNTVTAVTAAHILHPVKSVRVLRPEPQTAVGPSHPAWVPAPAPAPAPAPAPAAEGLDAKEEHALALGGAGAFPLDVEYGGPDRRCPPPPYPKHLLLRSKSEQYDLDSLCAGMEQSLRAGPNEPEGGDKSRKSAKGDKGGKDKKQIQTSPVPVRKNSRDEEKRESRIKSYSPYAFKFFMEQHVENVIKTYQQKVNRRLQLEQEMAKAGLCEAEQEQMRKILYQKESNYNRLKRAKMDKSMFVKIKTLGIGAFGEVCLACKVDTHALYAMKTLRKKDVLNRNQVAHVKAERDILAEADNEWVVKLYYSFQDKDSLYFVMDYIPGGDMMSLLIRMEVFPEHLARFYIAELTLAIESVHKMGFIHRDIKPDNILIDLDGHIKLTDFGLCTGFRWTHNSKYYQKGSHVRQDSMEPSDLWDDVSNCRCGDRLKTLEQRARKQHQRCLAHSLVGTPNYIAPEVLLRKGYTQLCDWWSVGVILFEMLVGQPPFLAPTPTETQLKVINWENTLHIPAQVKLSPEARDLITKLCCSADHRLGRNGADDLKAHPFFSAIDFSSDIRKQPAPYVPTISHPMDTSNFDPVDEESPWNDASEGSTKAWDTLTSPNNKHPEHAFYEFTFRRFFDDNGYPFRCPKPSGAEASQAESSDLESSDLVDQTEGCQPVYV

CN(C(=O)CN1CCOCC1)c1ccc2sc3c(-c4cccc5c(=O)cc(N6CC7CCC(C6)O7)oc45)cccc3c2c1 [NU5455]
% displacement: 4.7%

— PMC6934184, “Selective DNA-PKcs inhibition extends the therapeutic index of localized radiotherapy and chemotherapy” (The Journal of Clinical Investigation, 2019)
